# From patent publication US7030141B2, “Inhibitors of factor Xa and other serine proteases involved in the coagulation cascade” (priority 2001, dated 2006)
# Test system: clot lysis / acute reocclusion
# Test: not given
# Conditions: dog; cited from earlier work
Molecule,acute reocclusion,recombinant tissue plasminogen activator mediated clot lysis
"rTAP: ""recombinant tick anticoagulant peptide (rTAP)"", one of the ""protein or polypeptide factor Xa inhibitors"" (YNRLCIKPRDWIDECDSNEGGERAYFRNGKGGCDSFWICPEDHTGADYYSSYRDCFNACI; UniProt P17726 1-60, looked up)",prevent acute reocclusion,accelerate the recombinant tissue plasminogen activator mediated clot lysis

# Test system: thrombus formation
# Test: not given
# Conditions: rat arteriovenous shunt and venous stasis models; cited from earlier work
row,Molecule,inhibition of thrombus formation
1,CC(=N)N1CC[C@H](Oc2ccc([C@H](Cc3ccc4ccc(C(=N)N)cc4c3)C(=O)O)cc2)C1 [DX9065a],inhibition of thrombus formation was achieved at doses that had little effect on APTT

# Test system: venous thrombosis
# Test: not given
# Conditions: rabbit model of venous thrombosis; cited from earlier work
row,Molecule,fibrin deposition
1,"rTAP: ""recombinant tick anticoagulant peptide (rTAP)"", one of the ""protein or polypeptide factor Xa inhibitors"" (YNRLCIKPRDWIDECDSNEGGERAYFRNGKGGCDSFWICPEDHTGADYYSSYRDCFNACI; UniProt P17726 1-60, looked up)",reduce fibrin deposition

# Test system: arterial thrombosis
# Test: not given
# Conditions: canine coronary artery electrolytic lesion model; cited from earlier work
row,Molecule,thrombus mass and time to occlusion
1,"rTAP: ""recombinant tick anticoagulant peptide (rTAP)"", one of the ""protein or polypeptide factor Xa inhibitors"" (YNRLCIKPRDWIDECDSNEGGERAYFRNGKGGCDSFWICPEDHTGADYYSSYRDCFNACI; UniProt P17726 1-60, looked up)",reduce thrombus mass and time to occlusion

# Target: T1, human factor Xa (Homo sapiens, UniProt P00742)
# T1 construct: purchased Enzyme Research Laboratories
# T1 sequence (P00742 235-488 limits assumed): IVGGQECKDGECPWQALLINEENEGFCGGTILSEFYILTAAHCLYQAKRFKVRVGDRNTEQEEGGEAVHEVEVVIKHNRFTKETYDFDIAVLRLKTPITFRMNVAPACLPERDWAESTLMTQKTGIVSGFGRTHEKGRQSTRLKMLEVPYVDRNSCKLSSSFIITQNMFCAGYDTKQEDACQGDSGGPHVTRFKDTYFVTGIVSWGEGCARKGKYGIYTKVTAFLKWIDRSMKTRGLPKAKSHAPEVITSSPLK
# T1 sequence (P00742 41-179 partner limits assumed): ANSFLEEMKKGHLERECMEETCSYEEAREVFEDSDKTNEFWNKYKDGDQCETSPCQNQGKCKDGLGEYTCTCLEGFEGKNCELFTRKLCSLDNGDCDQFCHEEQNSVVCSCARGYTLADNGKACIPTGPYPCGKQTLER
# Test: Determination of Factor Xa IC50 (cleavage of chromogenic substrate S2765)
# Format: biochemical
# Conditions: 3 pM factor Xa; compound at 1 uM
# Protocol: A. Determination of Factor Xa IC50
# These concentrations were achieved by diluting a 21.087 μM stock solution of factor Xa in the appropriate amount of a buffer comprising 10 […], 0.1% BSA, pH 7.4 (HBSA buffer). Accordingly, 5 μL of the compound to be tested in DMSO (2% final) is added to the factor Xa/buffer solution and incubated for 60 minutes at room temperature.
# The IC50 is determined by monitoring the increase in […] at 390 nm exicitation, 460 nm emission, with a 455 nm cutoff, in a fluorometric plate reader.
row,Molecule,Fxa 3 PM % Inhibition at 1 uM [%]
1,N#Cc1ccc(NC(=O)C2CCCN2C(=O)Nc2ccc(Cl)cc2)cc1 (stereo not drawn),16.58
2,O=C(Nc1ccc(-c2nnn[nH]2)cc1)C1CCCN1C(=O)Nc1ccc(Cl)cc1 (stereo not drawn),36.64
3,NS(=O)(=O)c1ccccc1-c1ccc(NC(=O)[C@@H]2CCCN2C(=O)Nc2ccc(Cl)cc2)c(F)c1,46.5

# Same assay, conditions: 3 pM factor Xa; compound at 4 uM
row,Molecule,Fxa 3 PM % Inhibition at 4 uM [%]
1,NS(=O)(=O)c1ccccc1-c1ccc(NC(=O)C2CCCN2C(=O)Nc2ccccc2F)c(F)c1 (stereo not drawn),37.21
2,CC(=O)c1cccc(NC(=O)N2CCCC2C(=O)Nc2ccc(-c3ccccc3S(N)(=O)=O)cc2F)c1 (stereo not drawn),21.04
3,NS(=O)(=O)c1ccccc1-c1ccc(NC(=O)C2CCCN2C(=O)Nc2ccc(F)c(Cl)c2)c(F)c1 (stereo not drawn),41.07
4,NS(=O)(=O)c1ccccc1-c1ccc(NC(=O)C2CCCN2C(=O)Nc2cccc(Cl)c2)c(F)c1 (stereo not drawn),55.97
5,NS(=O)(=O)c1ccccc1-c1ccc(NC(=O)C2CCCN2C(=O)Nc2ccc(Cl)c(Cl)c2)c(F)c1 (stereo not drawn),41.71
6,Cc1cc(Cl)ccc1NC(=O)N1CCCC1C(=O)Nc1ccc(-c2ccccc2S(N)(=O)=O)cc1F (stereo not drawn),38.88
7,N#Cc1ccc(NC(=O)N2CCCC2C(=O)Nc2ccc(-c3ccccc3S(N)(=O)=O)cc2F)cc1 (stereo not drawn),51.86
8,CN(C)c1ccc(NC(=O)N2CCCC2C(=O)Nc2ccc(-c3ccccc3S(N)(=O)=O)cc2F)cc1 (stereo not drawn),19.93
9,CCc1ccc(NC(=O)N2CCCC2C(=O)Nc2ccc(-c3ccccc3S(N)(=O)=O)cc2F)cc1 (stereo not drawn),38.14
10,Cc1ccc(Cl)cc1NC(=O)N1CCCC1C(=O)Nc1ccc(-c2ccccc2S(N)(=O)=O)cc1F (stereo not drawn),19.84
11,CC(C)c1ccc(NC(=O)N2CCCC2C(=O)Nc2ccc(-c3ccccc3S(N)(=O)=O)cc2F)cc1 (stereo not drawn),19.22
12,COc1cccc(NC(=O)N2CCCC2C(=O)Nc2ccc(-c3ccccc3S(N)(=O)=O)cc2F)c1 (stereo not drawn),36.21
13,NS(=O)(=O)c1ccccc1-c1ccc(NC(=O)C2CCCN2C(=O)Nc2ccc(C(F)(F)F)cc2)c(F)c1 (stereo not drawn),25.1
14,NS(=O)(=O)c1ccccc1-c1ccc(NC(=O)C2CCCN2C(=O)Nc2cccc(C(F)(F)F)c2)c(F)c1 (stereo not drawn),21.61

# Same assay, conditions: 1 h, read-out: % at 1 uM (printed in column FXA 30 pM IC50); 30 pM factor Xa; compound at 1 uM
row,Molecule,inhibition at 1 µM [%]
1,O=C(Nc1ccc(-c2cncnc2)cc1)[C@H]1C[C@@H](O)CN1C(=O)Nc1ccc(Cl)cc1,32
2,O=C(Nc1ccc(NC(=O)[C@H]2C[C@@H](O)CN2C(=O)Nc2ccc(Cl)cc2)cc1)C1CCCC1,36
3,O=C(Nc1ccc(-n2ccnn2)cc1)[C@H]1C[C@@H](O)CN1C(=O)Nc1ccc(Cl)cc1,26
4,CO[C@@H]1C[C@H](C(=O)Nc2ccc(N3CCC3=O)cc2F)N(C(=O)Nc2ccc(Cl)cn2)C1,54

# Test system: arterial and venous thrombosis
# Test: not given
# Conditions: various models of arterial and venous thrombosis; cited from earlier work
row,Molecule,antithrombotic activity
1,"Antistasin: ""a potent inhibitor of blood coagulation factor Xa from the Mexican leech, Haementeria officinalis"" (protein, UniProt P15358 18-136, looked up) Antistasin: QGPFGPGCEEAGCPEGSACNIITDRCTCSGVRCRMHCPHGFQRSRYGCEFCKCRLEPMKATCDISECPEGMMCSRLTNKCDCKIDINCRKTCPNGLKRDKLGCEYCECRPKRKLIPRLS",displays antithrombotic activity
